Test results reported in article PMC9423655, “Huntington’s disease phenotypes are improved via mTORC1 modulation by small molecule therapy” (PLoS ONE, 2022).

Key:
[1] = tested on: mTORC1 pathway in heart; experiment: Chronic 6-week treatment: heart immunoblots; assay type: in vivo; settings: N171-82Q mice, 160 mg/kg daily 6 weeks, 1 hour after dosing
Procedure: (§1) Specific regions of the brain and heart were homogenized using a Next Advance Bullet Blender Storm in Lysis Buffer (Cell lysis buffer: 1% Triton X-100, 50 mM HEPES pH 7.4, 100 mM sodium chloride, 2 mM EDTA, 10 mM Beta-glycerophosphate, 10 mM Sodium pyrophosphate, and 1 protease inhibitor) at 4°C. Lysates were cleared by centrifugation at 13,200 rpm at 4°C for 10 minutes. Equal amounts of total protein from each sample were denatured and, resolved by SDS-PAGE. Membranes were imaged using the LI-COR imaging system. Proteins levels are normalized to tubulin, actin or GAPDH levels and further normalized to vehicle treated mice for each tissue.
Fig 5 Oral dosing with NV-5297 over 6 weeks improves cardiac function and activates the mTORC1 pathway. (A) Representative M-mode echocardiograms from transthoracic echocardiography at 6 weeks and 12 weeks of vehicle and NV-5297 treated N171-82Q males. (B) Heart weight corrected for the animal’s standard length (tibia length) at 12 weeks. (C) Left ventricular measurements obtained by transthoracic echocardiography by deducting the end treatment (12 weeks) from the baseline (6 weeks) measurements. Variation in cardiac output [CO], ejection fraction [EF], fractional shortening [FS], stroke volume (SV) and Heart rate [HR]. (D) Representative immunoblots for normalized phosphorylated S6 (^S240/244pS6), S6, phosphorylated Akt (^S437pAkt), Akt, phosphorylated mTOR (^S2448pmTOR), mTOR, phosphorylated 4E-BP1 (^Thr37/46p4E-BP1), 4E-BP1 and Actin in homogenized heart. (E) Quantification of the immunoblots for homogenized heart isolated 1 hour after oral dosing with NV-5297 (160 mg/kg; n = 14) normalized to loading control levels and further normalized to vehicle (Veh) treated mice (n = 15). Data are presented as mean ± SEM. *P ≤ 0.05, **P ≤ 0.01, ***P ≤ 0.001 (unpaired Kruskal-Wallis test with Dunn’s multiple comparison test [B], unpaired one-tailed Student’s t-tests [C, E pmTOR] with a Welch’s correction [pS6/S6, pmTOR/mTOR] or a Mann-Whitney test [pAkt/Akt, p4E-BP1/4E-BP1]).

[2] = tested on: mTORC1 pathway (pS6); experiment: pS6 immunoblot of striatum and heart after one week of oral dosing in N171-82Q HD mice; assay type: in vivo; settings: N171-82Q mice, oral 160 mg/kg daily for one week
Procedure: The initial trial consisted in one week of oral dosing in 12 weeks old N171-82Q males. The chronic 6 weeks treatment (Veh n = 15, NV-5297 n = 14) took place from 6 to 12 weeks of age. The cardiac stress took place in animals from 10 to 12 weeks of age (Veh-Sal n = 9, NV-Sal n = 10, Veh-Iso n = 16, NV-Iso n = 11).
as §1
Supplementary file pone.0273710.s002.tiff: S2 Fig Activation of the mTORC1 pathway in mice striatum and heart after oral dosing with NV-5297. (A) Representative immunoblot for the phosphorylated (^S240/244pS6), S6 and actin or tubulin in the striatum and heart of N171-82Q wild-type (WT) mice or N171-82Q HD mice respectively collected 1 hour after the last dose of a week of oral dosing with vehicle (Veh) or NV-5297 (160 mg/kg; A). Quantification of levels of ^S240/244pS6 in the striatum (B) and the heart (C) normalized to loading control levels and further normalized to untreated WT mice. Data are presented as mean ± SEM. **P ≤ 0.01, ***P ≤ 0.001 and ****P ≤ 0.0001 (Kruskal-Wallis test with Dunn’s multiple comparison tests). (TIFF) Click here for additional data file.

CC(C)(C[C@H](N)C(=O)O)C(F)(F)F [NV-5297, (S)-2-amino-5,5,5-trifluoro-4,4-dimethylpentanoic acid]
heart p4E-BP1 level versus controls [1]: elevated
heart pS6 level versus controls [1]: elevated
heart pmTOR level versus controls [1]: elevated
pS6 in heart relative to vehicle [2]: increased
pS6 in striata relative to vehicle [2]: increased
ratio of pS6 level in striatum and heart compared with age-matched WT mice [2]: normalized
